According to US9266835B2, “Quinoline derivatives useful as CB-1 inverse agonists” (JANSSEN PHARMACEUTICA NV, priority 2014, dated 2016):
Read-outs that look alike come from different tables or passages of the source.

Legend:
[1] = molecular target: Human CB1R (Cannabinoid receptor 1) (Homo sapiens (Human), UniProt P21554); assay: CB-1 in vitro cAMP assay (HTRF), inverse agonism; type: cell-based; details: mean where tested more than once
[2] = molecular target: Human CB2R (Cannabinoid receptor 2) (Homo sapiens (Human), UniProt P34972); assay: CB-2 in vitro cAMP assay (HTRF), inverse agonism; type: cell-based; details: mean where tested more than once
Sequence of Human CB2R (Cannabinoid receptor 2) (P34972 whole entry): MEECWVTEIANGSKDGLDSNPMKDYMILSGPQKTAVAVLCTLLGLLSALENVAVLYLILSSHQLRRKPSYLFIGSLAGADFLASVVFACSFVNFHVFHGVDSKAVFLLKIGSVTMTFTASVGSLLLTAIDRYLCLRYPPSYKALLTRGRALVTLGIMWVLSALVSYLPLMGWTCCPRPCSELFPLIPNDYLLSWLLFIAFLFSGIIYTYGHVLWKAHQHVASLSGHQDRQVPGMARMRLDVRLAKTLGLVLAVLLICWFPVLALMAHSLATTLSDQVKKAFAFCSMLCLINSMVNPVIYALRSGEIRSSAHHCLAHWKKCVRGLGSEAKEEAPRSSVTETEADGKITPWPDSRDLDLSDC

[3] = Mouse Fast PK/BBB (plasma and brain concentration); type: in vivo; details: male, C57bl/6j, oral, N=3 (dose given as 30 mg/kg and 20 mg/kg)
Source text: Male Sprague Dawley rats were ordered from Charles River (225-250 gm upon arrival). They were fed standard chow diet (Purina 5001) and housed 2 per cage. Male C57bl/6j mice were ordered from Charles River at 22-25 g and housed 3 per cage. They were fed standard chow (Purina 5001). All animals were housed in a temperature-controlled room with 12-hour light/dark cycle. Animals were given food and water ad libitum, except as noted.
Test compounds were formulated in 10% PEG400 and 10% solutol. Test compounds were administered by oral gavage (5 ml kg^−1).
Male C57bl/6j mice were dosed with test compounds at 30 mg/kg. Plasma was collected via retro-orbital bleeding at 1 hr and 4 hrs after dosing. Whole brain without cerebellum was collected at 4 hrs after dosing. Wet brain weight was recorded before freezing. Brains were homogenized in saline and sent for analysis for determination of concentration of test compound.
Table BIO-3 below present results for representative compounds of the present invention, tested according to the procedure as described above. Each compound was tested in three animals (N=3) and administered PA at 20 mg/kg

[4] = Mouse Fast PK/BBB (plasma and brain concentration); type: in vivo; details: oral, N=3 (dose given as 30 mg/kg and 20 mg/kg)
[5] = brain, read-out: BRAIN Mean Conc. ± Std. Dev
[6] = plasma, read-out: PLASMA Mean Conc. ± Std. Dev

Sequence of Human CB1R (Cannabinoid receptor 1) (P21554 whole entry): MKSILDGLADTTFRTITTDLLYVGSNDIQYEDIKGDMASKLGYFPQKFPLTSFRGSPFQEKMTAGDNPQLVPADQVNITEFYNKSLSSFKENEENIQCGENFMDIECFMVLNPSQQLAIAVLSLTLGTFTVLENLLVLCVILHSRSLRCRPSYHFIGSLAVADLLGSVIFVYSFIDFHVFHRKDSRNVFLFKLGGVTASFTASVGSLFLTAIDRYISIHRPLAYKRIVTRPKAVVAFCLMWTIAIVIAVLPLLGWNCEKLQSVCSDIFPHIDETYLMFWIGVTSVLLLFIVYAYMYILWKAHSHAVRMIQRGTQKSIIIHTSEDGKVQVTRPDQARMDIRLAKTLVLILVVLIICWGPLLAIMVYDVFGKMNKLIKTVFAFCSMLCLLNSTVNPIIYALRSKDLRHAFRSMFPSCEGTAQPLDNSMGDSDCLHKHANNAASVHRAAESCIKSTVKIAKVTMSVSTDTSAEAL

SMILES | EC50 [1] [nM] | EC50 [2] [nM] | concentration at 4 h [3, 5] [ng/mL] | concentration at 1 h [3, 6] [ng/mL] | concentration at 4 h [3, 6] [ng/mL] | concentration at 1 h ([4]; male, C57bl/6j, brain, read-out: BRAIN Mean Conc. ± Std. Dev) [ng/mL] | BRAIN Mean Conc. ± Std. Dev ([4]; 1 hr)
O=c1cc(Nc2ccc(C(F)(F)F)cc2)c2cc(C(c3ccc(Cl)cc3)c3ccc(Cl)cc3)ccc2[nH]1 [Compound #59, 6-(bis(4-chlorophenyl)methyl)-4-((4-(trifluoromethyl)phenyl)amino)quinolin-2(1H)-one] | 7 | > 10000 | 59.7 ± 9.55 | 2320 ± 1020 | 1610 ± 563 |  | BLOQ ± NA
CCOC(=O)COc1cc(C(c2ccc(Cl)cc2)c2ccc(Cl)cc2)cc2c(NC3CCN(S(=O)(=O)C(F)(F)F)CC3)cc(=O)[nH]c12 [Compound 544] | 126 | 3400 |  |  |  |  | 
O=c1cc(CCc2cccc(Cl)c2)c2cc(C(O)(c3ccc(Cl)cc3)c3nccs3)ccc2[nH]1 (stereo not drawn) [Compound 8, 4-(3-chlorophenethyl)-6-((4-chlorophenyl)(hydroxy)(thiazol-2-yl)methyl)quinolin-2(1H)-one] | 876 | > 10000 |  |  |  |  | 
O=c1cc(NC2CCN(S(=O)(=O)c3cccc(F)c3)CC2)c2cc(C(c3ccc(Cl)cc3)c3ccc(Cl)cc3)ccc2[nH]1 [Compound 82, 6-[Bis(4-chlorophenyl)methyl]-4-({1-[(3-fluorophenyl)sulfonyl]-piperidin-4-yl}amino)quinolin-2(1H)-one] | 63 | 3200 |  |  |  |  | 
CCOC(=O)CS(=O)(=O)N1CCC(Nc2cc(=O)[nH]c3ccc(C(c4ccc(Cl)cc4)c4ccc(Cl)cc4)cc23)CC1 [Compound 102, ethyl 2-((4-((6-(bis(4-chlorophenyl)methyl)-2-oxo-1,2-dihydroquinolin-4-yl)amino)piperidin-1-yl)sulfonyl)acetate] | 17 | > 10000 |  |  |  |  | 

More lines, now with the values ahead:

EC50 [1] [nM] | EC50 [2] [nM] | concentration at 4 h [3, 5] [ng/mL] | concentration at 1 h [3, 6] [ng/mL] | concentration at 4 h [3, 6] [ng/mL] | concentration at 1 h ([4]; male, C57bl/6j, brain, read-out: BRAIN Mean Conc. ± Std. Dev) [ng/mL] | BRAIN Mean Conc. ± Std. Dev ([4]; 1 hr) | SMILES
15 | 8150 | 0 | 714 ± 188 | 291 ± 90.5 | 7.43 |  | O=c1cc(NC2CCN(S(=O)(=O)C(F)(F)F)CC2)c2cc(C(c3ccc(Cl)cc3)c3nccs3)ccc2[nH]1 (stereo not drawn) [Compound #41, 6-((4-chlorophenyl)(thiazol-2-yl)methyl)-4-((1-((trifluoromethyl)sulfonyl)piperidin-4-yl)amino)quinolin-2(1H)-one]
92 | 60 |  |  |  |  |  | O=C(O)CCCCCOc1cc(NC2CCN(S(=O)(=O)C(F)(F)F)CC2)c2cc(C(c3ccc(Cl)cc3)c3ccc(Cl)cc3)ccc2n1 [Compound 535, 6-({6-[Bis(4-chlorophenyl)methyl]-4-({1-[(trifluoromethyl)sulfonyl]-piperidin-4-yl}amino)quinolin-2-yl}oxy)hexanoic acid]
52 | 5400 |  |  |  |  |  | O=c1cc(NC2CCN(S(=O)(=O)C(F)(F)F)CC2)c2cc(C(O)(c3ccc(Cl)cc3)c3ccc(Cl)cc3)ccc2[nH]1 [Compound 73, 6-[Bis(4-chlorophenyl)(hydroxy)methyl]-4-({1-[(trifluoromethyl)sulfonyl]-piperidin-4-yl}amino)quinolin-(1H)-one]
625 | > 10000 |  |  |  |  |  | NCCCCNc1cc(C(c2ccc(Cl)cc2)c2ccc(Cl)cc2)cc2c(NC3CCN(S(=O)(=O)C(F)(F)F)CC3)cc(=O)[nH]c12 [Compound 141, 8-((4-aminobutyl)amino)-6-(bis(4-chlorophenyl)methyl)-4-((1-((trifluoromethyl)sulfonyl)piperidin-4-yl)amino)quinolin-2(1H)-one]
25 | > 10000 |  |  |  |  |  | COC(=O)c1ccc(C(=O)N2CCC(Nc3cc(=O)[nH]c4ccc(C(c5ccc(Cl)cc5)c5ccc(Cl)cc5)cc34)CC2)cc1 [Compound 113, Methyl 4-{[4-({6-[bis(4-chlorophenyl)methyl]-2-oxo-1,2-dihydroquinolin-4-yl}amino)piperidin-1-yl]carbonyl}benzoate]
> 10000 | > 10000 |  |  |  |  |  | O=C(O)CCN1CCC(Nc2cc(=O)[nH]c3ccc(C(c4ccc(Cl)cc4)c4ccc(Cl)cc4)cc23)CC1 [Compound 115, 3-[4-({6-[Bis(4-chlorophenyl)methyl]-2-oxo-1,2-dihydroquinolin-4-yl}amino)piperidin-1-yl]propanoic acid]
